Measured values published in patent US20240032541A1, “HERBICIDAL COMPOUNDS” (SYNGENTA CROP PROTECTION AG, priority 2020, published 2024).

Legend:
Type in all cases: in vivo
[1] = system: Amaranthus retoflexus (AMARE); test: Post-emergence herbicide glasshouse test; settings: post-emergence (sprayed after 8 days cultivation), 250 g/ha, evaluated after 13 days
Experimental: (§1) Seeds of a variety of test species are sown in standard soil in pots Amaranthus retoflexus (AMARE), Echinochloa crus-galli (ECHCG), Setaria faberi (SETFA)). After cultivation for one day (pre-emergence) or after 8 days cultivation (post-emergence) under controlled conditions in a glasshouse (at 24/16° C., day/night; 14 hours light; 65% humidity), the plants are sprayed with an aqueous spray solution derived from the formulation of the technical active ingredient in acetone/water (50:50) solution containing 0.5% Tween 20 (polyoxyethelyene sorbitan monolaurate, CAS RN 9005-64-5). Compounds are applied at 250 g/ha unless otherwise stated. The test plants are then grown in a glasshouse under controlled conditions in a glasshouse (at 24/16° C., day/night; 14 hours light; 65% humidity) and watered twice daily. After 13 days for pre and post-emergence, the test is evaluated for the percentage damage caused to the plant. The biological activities are shown in the following table on a five-point scale (5=81-100%; 4=61-80%; 3=41-60%; 2=21-40%; 1=0-20%).

[2] = system: Echinochloa crus-galli (ECHCG); test: Post-emergence herbicide glasshouse test; settings: post-emergence (sprayed after 8 days cultivation), 250 g/ha, evaluated after 13 days
Experimental: as §1

Setaria faberi (SETFA) [3] = test: Post-emergence herbicide glasshouse test; settings: post-emergence (sprayed after 8 days cultivation), 250 g/ha, evaluated after 13 days
Experimental: as §1

[4] = system: Amaranthus retoflexus (AMARE); test: Pre-emergence herbicide glasshouse test; settings: pre-emergence (sprayed after one day cultivation), 250 g/ha, evaluated after 13 days
Experimental: as §1

[5] = system: Echinochloa crus-galli (ECHCG); test: Pre-emergence herbicide glasshouse test; settings: pre-emergence (sprayed after one day cultivation), 250 g/ha, evaluated after 13 days
Experimental: as §1

Setaria faberi (SETFA) [6] = test: Pre-emergence herbicide glasshouse test; settings: pre-emergence (sprayed after one day cultivation), 250 g/ha, evaluated after 13 days
Experimental: as §1

Cc1cnc(Oc2cccc3nc(C(F)(F)F)nc(CCCC(F)(F)F)c23)nc1 [Compound 1.020]
percentage damage caused to the plant, five-point scale, AMARE [1]: 4 (4=61-80%) | percentage damage caused to the plant, five-point scale, ECHCG [2]: 5 (5=81-100%) | percentage damage caused to the plant, five-point scale, SETFA (Setaria faberi (SETFA) [3]): 5 (5=81-100%) | percentage damage caused to the plant, five-point scale, AMARE [4]: 5 (5=81-100%) | percentage damage caused to the plant, five-point scale, ECHCG [5]: 5 (5=81-100%) | percentage damage caused to the plant, five-point scale, SETFA (Setaria faberi (SETFA) [6]): 5 (5=81-100%)

FC(F)(F)CCCCc1nc(C(F)(F)F)nc2cccc(Oc3ncc(Cl)cn3)c12 [Compound 1.021]
percentage damage caused to the plant, five-point scale, AMARE [1]: 5 (5=81-100%) | percentage damage caused to the plant, five-point scale, ECHCG [2]: 4 (4=61-80%) | percentage damage caused to the plant, five-point scale, SETFA (Setaria faberi (SETFA) [3]): 4 (4=61-80%) | percentage damage caused to the plant, five-point scale, AMARE [4]: 5 (5=81-100%) | percentage damage caused to the plant, five-point scale, ECHCG [5]: 5 (5=81-100%) | percentage damage caused to the plant, five-point scale, SETFA (Setaria faberi (SETFA) [6]): 5 (5=81-100%)

FC(F)(F)CCc1nc(C(F)(F)F)nc2cccc(Oc3ncc(Cl)cn3)c12 [Compound 1.022]
percentage damage caused to the plant, five-point scale, AMARE [1]: 4 (4=61-80%) | percentage damage caused to the plant, five-point scale, ECHCG [2]: 4 (4=61-80%) | percentage damage caused to the plant, five-point scale, SETFA (Setaria faberi (SETFA) [3]): 4 (4=61-80%) | percentage damage caused to the plant, five-point scale, AMARE [4]: 5 (5=81-100%) | percentage damage caused to the plant, five-point scale, ECHCG [5]: 5 (5=81-100%) | percentage damage caused to the plant, five-point scale, SETFA (Setaria faberi (SETFA) [6]): 5 (5=81-100%)

FC(F)(F)CCCc1nc(C(F)(F)F)nc2cccc(Oc3ncc(Br)cn3)c12 [Compound 1.025]
percentage damage caused to the plant, five-point scale, AMARE [1]: 4 (4=61-80%) | percentage damage caused to the plant, five-point scale, ECHCG [2]: 5 (5=81-100%) | percentage damage caused to the plant, five-point scale, SETFA (Setaria faberi (SETFA) [3]): 4 (4=61-80%) | percentage damage caused to the plant, five-point scale, AMARE [4]: 4 (4=61-80%) | percentage damage caused to the plant, five-point scale, ECHCG [5]: 5 (5=81-100%) | percentage damage caused to the plant, five-point scale, SETFA (Setaria faberi (SETFA) [6]): 5 (5=81-100%)

COc1cnc(Oc2cccc3nc(C(F)(F)F)nc(CCCC(F)(F)F)c23)nc1 [Compound 1.026]
percentage damage caused to the plant, five-point scale, AMARE [1]: 4 (4=61-80%) | percentage damage caused to the plant, five-point scale, ECHCG [2]: 3 (3=41-60%) | percentage damage caused to the plant, five-point scale, SETFA (Setaria faberi (SETFA) [3]): 4 (4=61-80%) | percentage damage caused to the plant, five-point scale, AMARE [4]: 2 (2=21-40%) | percentage damage caused to the plant, five-point scale, ECHCG [5]: 4 (4=61-80%) | percentage damage caused to the plant, five-point scale, SETFA (Setaria faberi (SETFA) [6]): 4 (4=61-80%)

FC(F)Oc1cnc(Oc2cccc3nc(C(F)(F)F)nc(CCCC(F)(F)F)c23)nc1 [Compound 1.027]
percentage damage caused to the plant, five-point scale, AMARE [1]: 4 (4=61-80%) | percentage damage caused to the plant, five-point scale, ECHCG [2]: 1 (1=0-20%) | percentage damage caused to the plant, five-point scale, SETFA (Setaria faberi (SETFA) [3]): 1 (1=0-20%) | percentage damage caused to the plant, five-point scale, AMARE [4]: 3 (3=41-60%) | percentage damage caused to the plant, five-point scale, ECHCG [5]: 2 (2=21-40%) | percentage damage caused to the plant, five-point scale, SETFA (Setaria faberi (SETFA) [6]): 0

C=CCCc1nc(C(F)(F)F)nc2cccc(Oc3ncc(Cl)cn3)c12 [Compound 1.028, 4-but-3-enyl-5-(5-chloropyrimidin-2-yl) oxy-2 (trifluoromethyl)quinazoline]
percentage damage caused to the plant, five-point scale, AMARE [1]: 5 (5=81-100%) | percentage damage caused to the plant, five-point scale, ECHCG [2]: 4 (4=61-80%) | percentage damage caused to the plant, five-point scale, SETFA (Setaria faberi (SETFA) [3]): 4 (4=61-80%) | percentage damage caused to the plant, five-point scale, AMARE [4]: 4 (4=61-80%) | percentage damage caused to the plant, five-point scale, ECHCG [5]: 5 (5=81-100%) | percentage damage caused to the plant, five-point scale, SETFA (Setaria faberi (SETFA) [6]): 5 (5=81-100%)

FC(F)(F)CCCc1nc(Br)nc2cccc(Oc3ncc(Cl)cn3)c12 [Compound 1.029]
percentage damage caused to the plant, five-point scale, AMARE [1]: 4 (4=61-80%) | percentage damage caused to the plant, five-point scale, ECHCG [2]: 1 (1=0-20%) | percentage damage caused to the plant, five-point scale, SETFA (Setaria faberi (SETFA) [3]): 2 (2=21-40%) | percentage damage caused to the plant, five-point scale, AMARE [4]: 1 (1=0-20%) | percentage damage caused to the plant, five-point scale, ECHCG [5]: 1 (1=0-20%) | percentage damage caused to the plant, five-point scale, SETFA (Setaria faberi (SETFA) [6]): 4 (4=61-80%)

FC(F)(F)CCCc1nc(C2CCCC2)nc2cccc(Oc3ncc(Cl)cn3)c12 [Compound 1.031]
percentage damage caused to the plant, five-point scale, AMARE [1]: 4 (4=61-80%) | percentage damage caused to the plant, five-point scale, ECHCG [2]: 3 (3=41-60%) | percentage damage caused to the plant, five-point scale, SETFA (Setaria faberi (SETFA) [3]): 3 (3=41-60%) | percentage damage caused to the plant, five-point scale, AMARE [4]: 1 (1=0-20%) | percentage damage caused to the plant, five-point scale, ECHCG [5]: 5 (5=81-100%) | percentage damage caused to the plant, five-point scale, SETFA (Setaria faberi (SETFA) [6]): 5 (5=81-100%)

CCCCCCc1nc(CCCC(F)(F)F)c2c(Oc3ncc(Cl)cn3)cccc2n1 [Compound 1.032]
percentage damage caused to the plant, five-point scale, AMARE [1]: 5 (5=81-100%) | percentage damage caused to the plant, five-point scale, ECHCG [2]: 3 (3=41-60%) | percentage damage caused to the plant, five-point scale, SETFA (Setaria faberi (SETFA) [3]): 3 (3=41-60%) | percentage damage caused to the plant, five-point scale, AMARE [4]: 4 (4=61-80%) | percentage damage caused to the plant, five-point scale, ECHCG [5]: 4 (4=61-80%) | percentage damage caused to the plant, five-point scale, SETFA (Setaria faberi (SETFA) [6]): 4 (4=61-80%)

CCCc1nc(CCCC(F)(F)F)c2c(Oc3ncc(Cl)cn3)cccc2n1 [Compound 1.033]
percentage damage caused to the plant, five-point scale, AMARE [1]: 4 (4=61-80%) | percentage damage caused to the plant, five-point scale, ECHCG [2]: 3 (3=41-60%) | percentage damage caused to the plant, five-point scale, SETFA (Setaria faberi (SETFA) [3]): 3 (3=41-60%) | percentage damage caused to the plant, five-point scale, AMARE [4]: 2 (2=21-40%) | percentage damage caused to the plant, five-point scale, ECHCG [5]: 5 (5=81-100%) | percentage damage caused to the plant, five-point scale, SETFA (Setaria faberi (SETFA) [6]): 5 (5=81-100%)

FC(F)(F)CCCc1nc(C2CC2)nc2cccc(Oc3ncc(Cl)cn3)c12 [Compound 1.036]
percentage damage caused to the plant, five-point scale, AMARE [1]: 4 (4=61-80%) | percentage damage caused to the plant, five-point scale, ECHCG [2]: 3 (3=41-60%) | percentage damage caused to the plant, five-point scale, SETFA (Setaria faberi (SETFA) [3]): 2 (2=21-40%) | percentage damage caused to the plant, five-point scale, AMARE [4]: 2 (2=21-40%) | percentage damage caused to the plant, five-point scale, ECHCG [5]: 4 (4=61-80%) | percentage damage caused to the plant, five-point scale, SETFA (Setaria faberi (SETFA) [6]): 5 (5=81-100%)

Cc1nc2cccc(Oc3ncc(Cl)cn3)c2c(CCCC(F)(F)F)c1C#N [Compound 1.043, 5-(5-chloropyrimidin-2-yl) oxy-2-methyl-4-(4,4,4-trifluorobutyl) quinoline-3-carbonitrile]
percentage damage caused to the plant, five-point scale, AMARE [1]: 2 (2=21-40%) | percentage damage caused to the plant, five-point scale, ECHCG [2]: 1 (1=0-20%) | percentage damage caused to the plant, five-point scale, SETFA (Setaria faberi (SETFA) [3]): 2 (2=21-40%) | percentage damage caused to the plant, five-point scale, AMARE [4]: 0 | percentage damage caused to the plant, five-point scale, ECHCG [5]: 1 (1=0-20%) | percentage damage caused to the plant, five-point scale, SETFA (Setaria faberi (SETFA) [6]): 2 (2=21-40%)

Cc1ccc(Oc2ncc(Cl)cn2)c2c(CCCC(F)(F)F)nc(C(F)(F)F)nc12 [Compound 1.046, 5-(5-chloropyrimidin-2-yl)oxy-8-methyl-4-(4,4,4-trifluorobutyl)-2-(trifluoromethyl)quinazoline]
percentage damage caused to the plant, five-point scale, AMARE [1]: 4 (4=61-80%) | percentage damage caused to the plant, five-point scale, ECHCG [2]: 3 (3=41-60%) | percentage damage caused to the plant, five-point scale, SETFA (Setaria faberi (SETFA) [3]): 2 (2=21-40%) | percentage damage caused to the plant, five-point scale, AMARE [4]: 2 (2=21-40%) | percentage damage caused to the plant, five-point scale, ECHCG [5]: 2 (2=21-40%) | percentage damage caused to the plant, five-point scale, SETFA (Setaria faberi (SETFA) [6]): 3 (3=41-60%)

CC(C)c1nc(CCCC(F)(F)F)c2c(Oc3ncc(Cl)cn3)cccc2n1 [Compound 1.050, 5-(5-chloropyrimidin-2-yl)oxy-2-isopropyl-4-(4,4,4-trifluorobutyl)quinazoline]
percentage damage caused to the plant, five-point scale, AMARE [1]: 5 (5=81-100%) | percentage damage caused to the plant, five-point scale, ECHCG [2]: 2 (2=21-40%) | percentage damage caused to the plant, five-point scale, SETFA (Setaria faberi (SETFA) [3]): 3 (3=41-60%) | percentage damage caused to the plant, five-point scale, AMARE [4]: 5 (5=81-100%) | percentage damage caused to the plant, five-point scale, ECHCG [5]: 5 (5=81-100%) | percentage damage caused to the plant, five-point scale, SETFA (Setaria faberi (SETFA) [6]): 5 (5=81-100%)
